According to US20110264139A1, “SUTURES AND FIBROSING AGENTS” (Angiotech Pharmaceuticals, Inc., priority 2006, published 2011):

How the values were obtained:
Assay in all cases: MIC assay, microtitre broth dilution
Format in all cases: cell-based
[1] = tested on: S. aureus ATCC25923 C622; conditions: S. aureus ATCC25923 C622 wt, Gram +; Mueller Hinton broth, 37° C., 24 h
Description: (§1) MIC assays were conducted essentially as described by Amsterdam, D. 1996, “Susceptibility testing of antimicrobials in liquid media,” p. 52-111. In Loman, V., ed. Antibiotics in Laboratory Medicine, 4th ed. Williams and Wilkins, Baltimore, Md. Briefly, a variety of compounds were tested for antibacterial activity against isolates of P. aeruginosa, K. pneumoniae , E. coli, S. epidermidus, and S. aureus in the MIC (minimum inhibitory concentration) assay under aerobic conditions using 96 well polystyrene microtitre plates (Falcon 1177), and Mueller Hinton broth at 37° C. incubated for 24 h. (MHB was used for most testing except C721 (S. pyogenes), which used Todd Hewitt broth, and Haemophilus influenzae, which used Haemophilus test medium (HTM)). Tests were conducted in triplicate.

[2] = tested on: P. aeruginosa PAE/K799 H187; conditions: P. aeruginosa PAE/K799 H187 wt, Gram −; Mueller Hinton broth, 37° C., 24 h
Description: as §1

[3] = tested on: S. pyogenes C721; conditions: S. pyogenes C721 wt, Gram +; Todd Hewitt broth, 37° C., 24 h
Description: as §1

[4] = tested on: S. epidermidis C621; conditions: S. epidermidis C621 wt, Gram +; Mueller Hinton broth, 37° C., 24 h
Description: as §1

[5] = tested on: K. pneumoniae ATCC13883 C238; conditions: K. pneumoniae ATCC13883 C238 wt, Gram −; Mueller Hinton broth, 37° C., 24 h
Description: as §1

[6] = tested on: E. Coli UB1005 C498; conditions: E. Coli UB1005 C498 wt, Gram −; Mueller Hinton broth, 37° C., 24 h
Description: as §1

Compound	Minimum inhibitory concentration [1]	Minimum inhibitory concentration [2]	Minimum inhibitory concentration [3]	Minimum inhibitory concentration [4]	Minimum inhibitory concentration [5]	Minimum inhibitory concentration [6]
NC(=O)NO [hydroxyurea]	N	10^−4 molar	10^−4 molar	N	N	N
Nc1ccn([C@@H]2O[C@H](CO)[C@@H](O)[C@@H]2O)c(=O)n1 [Cytarabine]	N	N	N	N	N	N
Sc1ncc2[nH]cnc2n1 [2-mercaptopurine]	N	N	N	N	N	N
O=c1[nH]cc(F)c(=O)[nH]1 [5-fluorouracil]	10^−7 molar	10^−5 molar	10^−4 molar	10^−7 molar	10^−6 molar	10^−6 molar
O=C1c2c(O)ccc(O)c2C(=O)c2c(NCCNCCO)ccc(NCCNCCO)c21 [mitoxantrone]	10^−5 molar	10^−5 molar	10^−6 molar	10^−5 molar	10^−6 molar	10^−5 molar
CN(Cc1cnc2nc(N)nc(N)c2n1)c1ccc(C(=O)N[C@@H](CCC(=O)O)C(=O)O)cc1 [methotrexate]	10^−5 molar	N	10^−6 molar	N	10^−6 molar	N
Sc1ncnc2nc[nH]c12 [6-mercaptopurine]	N	N	N	N	N	N
COc1cc([C@@H]2c3cc4c(cc3[C@@H](O[C@@H]3O[C@@H]5CO[C@@H](C)O[C@H]5[C@H](O)[C@H]3O)[C@H]3COC(=O)[C@H]23)OCO4)cc(OC)c1O [etoposide]	10^−5 molar	N	10^−5 molar	10^−6 molar	10^−5 molar	N
CC[C@@]1(O)C(=O)OCc2c1cc1n(c2=O)Cc2cc3ccccc3nc2-1 [camptothecin]	N	N	N	10^−4 molar	N	N
cisplatin	N	10^−4 molar	N	N	N	N
COc1cccc2c1C(=O)c1c(O)c3c(c(O)c1C2=O)C[C@@](O)(C(=O)CO)C[C@@H]3O[C@H]1C[C@H](N)[C@H](O)[C@H](C)O1 [doxorubicin]	10^−5 molar	10^−5 molar	10^−7 molar	10^−6 molar	10^−6 molar	10^−4 molar
Nc1ncnc2c1ccn2[C@@H]1O[C@H](CO)[C@@H](O)[C@H]1O [tubercidin]	N	N	N	N	N	N
